Measurements from US20220387602A1, “BIFUNCTIONAL DEGRADERS AND THEIR METHODS OF USE” (NOVARTIS AG, priority 2019, published 2022).

Legend:
CRBN [1] = biological target: T1, CRBN (Homo sapiens, UniProt Q96SW2); experiment: CRBN displacement assay Format 2a (fluorescence polarization, 1536-well, Envision reader); assay type: binding
Method: (§1) Compounds were tested in the following biochemical and cellular assays.
(§2) BodipyFL conjugated lenalidomide compound HH was used as a fluorescent probe. […] Protein and substrate were diluted in assay buffer.
The fluorescence of the Bodipy FL-based probe was excited at 480 nm and the emissions of the product were measured at 535 nm. The fluorescence in each well was excited by 30 flashes per measurement.
For the determination of AC50 values, assays were performed at room temperature in 1536-well plates with a total assay volume of 6.03 μL per well. The test compounds were dissolved and diluted in 100% DMSO. For the assays, 30 nL of DMSO or compound solution were added per well, followed by the addition of 3 μL protein solution (80 nM protein in 1× assay buffer).
The final assay concentration of the protein was nominally 40 nM. After 45 minutes of pre-incubation at room temperature, the competition for binding was started by the addition of 3 μL probe solution (10 nM probe dissolved in assay buffer). The final concentration of the probe in the assays was 5 nM. After the addition of the probe solution, the final DMSO concentration in the assay was 0.5% (v/v). The effect of the probe on the pre-established compound-protein complex equilibrium was determined after 45 minutes (t=45 min). The AC50 value was calculated from the plot of percentage of protein saturation versus the test compound concentration by a logistics fit according to: y=A^2+(A^1−A^2)/(1+(x/AC50)^p), where y is the %-saturation value at the test compound concentration, x. A^1 is the lowest saturation value, i.e., 0%, and A^2 the maximum saturation value, i.e. 100%. The exponent, p, is the Hill coefficient.

CRBN [2] = biological target: T1, CRBN; experiment: CRBN displacement assay Format 1 (fluorescence polarization, BodipyFL-lenalidomide probe Compound HH); assay type: binding
Method: as §1, §2
All protein and probe containing solutions were handled in ‘Maxymum Recovery’ tubes (Axygen Scientific Inc., Union City, USA). […] For the plate measurements a PHERAstar reader (BMG Labtech, Offenburg, Germany) was used. The instrument was equipped with a specific optics module containing filters and dichoic mirrors for measuring the fluorescence polarization-type assay. With this module, the fluorescence of the Bodipy FL-based probe was excited at 485 nm and the emissions of the product were measured at 520 nm. The fluorescence in each well was excited by 10 flashes per measurement.
For the determination of AC50 values, the assays were performed at room temperature in 384-well plates with a total assay volume of 10.1 μL per well. The test compound was dissolved in 90% (v/v) DMSO/water. For the assays, 100 nL of the 90% (v/v) DMSO/water solution or compound solution were added per well, followed by the addition of 5 μL protein solution (protein in 1× assay buffer).
The final assay concentration of the protein was nominally 100 nM. After 45 minutes of pre-incubation at room temperature, the competition for binding was started by the addition of 5 μL probe solution (probe dissolved in assay buffer). The final concentration of the probes in the assays was 5 nM. After the addition of the probe solution, the final DMSO concentration in the assay was 0.9% (v/v). The effect of the probe on the pre-established compound-protein complex equilibrium was determined after 45 minutes (t=45 min). The AC50 value was calculated from the plot of percentage of protein saturation versus the test compound concentration by a logistics fit according to: y=A^2+(A^1−A^2)/(1+(x/AC50)^p), where y is the %-saturation value at the test compound concentration, x. A^1 is the lowest saturation value, i.e., 0%, and A^2 the maximum saturation value, i.e. 100%. The exponent, p, is the Hill coefficient.

BTK = biological target: T2, BTK (Homo sapiens, UniProt Q06187); experiment: BTK-GFP protein abundance flow cytometry assay in HEK293A; assay type: cell-based; settings: 24 h; for BTK degradation Amax: % protein remaining at the concentration at which maximum degradation is seen, HEK293A; for DC50: concentration at which 50% maximal degradation was observed, HEK293A BTK-GFP sensor cells
T2 construct: the BTK open reading frame (ORF) was first shuttled from a pcDNA-DEST40-BTK vector; expressed in transfected cells; host or cells: HEK293A (Invitrogen R70507), lentiviral transduction, blasticidin selection
T2 sequence (Q06187 whole entry): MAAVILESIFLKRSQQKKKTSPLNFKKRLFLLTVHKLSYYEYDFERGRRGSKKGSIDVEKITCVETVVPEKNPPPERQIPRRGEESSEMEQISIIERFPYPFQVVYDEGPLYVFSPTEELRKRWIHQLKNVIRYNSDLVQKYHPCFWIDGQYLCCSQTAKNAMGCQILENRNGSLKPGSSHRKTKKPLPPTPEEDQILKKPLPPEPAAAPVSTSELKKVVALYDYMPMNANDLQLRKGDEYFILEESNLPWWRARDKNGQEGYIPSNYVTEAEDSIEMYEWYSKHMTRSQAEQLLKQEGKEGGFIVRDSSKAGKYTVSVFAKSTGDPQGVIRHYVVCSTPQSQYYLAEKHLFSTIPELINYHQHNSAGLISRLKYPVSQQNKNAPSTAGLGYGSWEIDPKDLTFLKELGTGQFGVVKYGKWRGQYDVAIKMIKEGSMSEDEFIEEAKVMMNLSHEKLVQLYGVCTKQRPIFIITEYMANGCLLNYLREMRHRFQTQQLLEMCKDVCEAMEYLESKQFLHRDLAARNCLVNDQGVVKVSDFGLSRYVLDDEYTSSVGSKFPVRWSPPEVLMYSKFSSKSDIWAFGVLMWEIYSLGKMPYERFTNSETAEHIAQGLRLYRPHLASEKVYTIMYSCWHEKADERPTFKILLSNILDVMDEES
Method: Degradation of BTK, CSK, ABL2, EPHA4 and YES1 was measured in HEK293A cells (Invitrogen R70507) expressing either BTK-GFP and RFP, CSK-GFP and mCherry, GFP-ABL2 and mCherry, EPHA4-GFP and mCherry, or YES1-GFP and mCherry from a stably integrated bicistronic BTK-GFP-iresRFP, CSK-GFP-CHYSEL-mCherry, GFP-ABL2-CHYSEL-mCherry, EPHA4-GFP-CHYSEL-mCherry, or YES1-GFP-CHYSEL-mCherry construct, respectively. Reduction of the GFP signal measured by flow cytometry served as readout for BTK, CSK, ABL2, EPHA4 and YES1 degradation after degrader treatment.
The mix was incubated for another 20 min at RT and then added on 1 mL of a freshly prepared suspension of HEK293FT cells in a well of a 6-well plate (concentration 1.2×10^6 cells/mL). 1 day after transfection, the medium was replaced with 1.5 mL of complete growth medium (DMEM high Glucose+10% FCS+1% L-Glutamine+1% NEAA+1% NaPyr.). 48 h post transfection supernatant containing viral transducing particles was collected and frozen at −80° C.
Infection was performed with 90 μL of collected supernatant containing viral transducing particles in 1 mL medium including 8 µg/mL polybrene. 24 h post infection, stably transfected cells were selected with blasticidin at a concentration of 8 μg/mL referred to as stable HEK293A sensor cells.
Stable HEK293A sensor cells were maintained in complete growth medium (DMEM high Glucose+10% FCS+1% L-Glutamine+1% NEAA+1% NaPyr.) with passaging performed twice per week. On Day 0, stable HEK293A sensor cells were seeded at 10,000 cells/well in a 96-well microtiter plate in 260 μL complete medium. On Day 1, cells were treated in duplicate with 10-point 1:3 dilution series of compound using the HP D300 Digital Dispenser (Tecan). DMSO concentrations were normalized across the plate to 0.1%. On Day 2, after 24 h of incubation at 37° C., treatment media was discarded, cells rinsed with 100 μL/well PBS and then detached using 40 μL trypsin/well for 5 min. Trypsin was neutralized with 100 μL/well PBS+20% FCS). Flow cytometry was performed on the samples using the BD FACS CANTO II (Becton Dickinson). Cell identification was then performed using forward (FSC) vs. side scatter (SSC) plots. Single cell discrimination is performed using SSC-Width (SSC-W) vs. SSC-Height (SSC-H) plots. Median GFP values for 5,000 single cells are used to determine BTK levels. Median GFP values from HEK293 Å-iresRFP are used as a background signal and thus defining 0% BTK signal. Median GFP values from DMSO treated HEK293 Å-BTK-GFP-iresRFP are used to define 100% BTK signal for subsequent DC50 curves (concentration at 50% BTK degradation). GFP and RFP are read in the channels called FITC and PE, respectively.
Concentration response curves plotting relative reduction of the GFP signal (measured by flow cytometry) versus 10 compound concentrations (starting concentration 10 μM, 3 fold dilution steps) of the compounds allowed generation of DC50 values. Protein abundance measured for the second generation vectors having a chysel was done in close analogy to the above described method for measuring BTK abundance.
Table 5 columns are defined as follows: DC50 refers to the concentration at which 50% maximal degradation was observed; deg Amax is the extent of degradation and the value refers to the % protein remaining at the concentration at which maximum degradation is seen.

[3] = concentration at which 50% of reference probe Compound HH is displaced, 40 nM protein, 5 nM probe, read-out: CRBN AC50 [μM] Format 2a
[4] = concentration at which 50% of reference probe Compound HH is displaced, 100 nM protein, 5 nM probe, Table 4, read-out: CRBN AC50 [μM] Format 1

T1 sequence (Q96SW2 whole entry): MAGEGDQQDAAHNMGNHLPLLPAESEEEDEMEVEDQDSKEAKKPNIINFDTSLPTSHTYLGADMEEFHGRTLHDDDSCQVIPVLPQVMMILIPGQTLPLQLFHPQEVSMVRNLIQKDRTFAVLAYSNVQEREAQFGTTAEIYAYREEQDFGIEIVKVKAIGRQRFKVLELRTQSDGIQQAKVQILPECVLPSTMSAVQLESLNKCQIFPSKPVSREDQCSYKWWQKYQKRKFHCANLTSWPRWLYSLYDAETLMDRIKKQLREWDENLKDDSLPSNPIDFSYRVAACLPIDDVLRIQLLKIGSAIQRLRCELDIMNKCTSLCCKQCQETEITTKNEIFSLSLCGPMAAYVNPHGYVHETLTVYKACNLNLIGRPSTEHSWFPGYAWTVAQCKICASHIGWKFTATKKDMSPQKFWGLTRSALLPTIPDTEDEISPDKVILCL

| SMILES | AC50 (CRBN [1]; [3]) [µM] | AC50 (CRBN [2]; [4]) [µM] | also measured |
| --- | --- | --- | --- |
| O=C1CCN(c2ccc(C(=O)O)cc2)C(=O)N1 [ILB-31] | 5.1 | 9.64 | – |
| O=CCOc1cccc(N2CCC(=O)NC2=O)c1 [ILB-18, 2-(3-(2,4-Dioxotetrahydropyrimidin-1(2H)-yl)phenoxy)acetaldehyde] | 3.79 | 11.2 | – |
| O=C1CCN(c2cc(C(=O)O)ccc2F)C(=O)N1 [ILB-27, 3-(2,4-dioxotetrahydropyrimidin-1(2H)-yl)-4-fluorobenzoic acid] | 0.74 | 3.03 | – |
| COc1ccc(C(=O)O)cc1N1CCC(=O)NC1=O [ILB-26, 3-(2,4-dioxotetrahydropyrimidin-1(2H)-yl)-4-methoxybenzoic acid] | 1.26 | 2.92 | – |
| O=C(O)COc1ccc(N2CCC(=O)NC2=O)cc1 [ILB-14, 2-(4-(2,4-Dioxotetrahydropyrimidin-1(2H)-yl)phenoxy)acetic acid] | 5.79 | 13 | – |
| COc1ccc(C(=O)N2CCC(OC3CCNCC3)CC2)cc1N1CCC(=O)NC1=O [ILB-59, 1-(2-methoxy-5-(4-(piperidin-4-yloxy)piperidine-1-carbonyl)phenyl)dihydropyrimidine-2,4(1H,3H)-dione] | – | – | AC50 (CRBN [1]): 0.34 µM; AC50 (CRBN [2]): 1.36 µM |
| Cc1cc(OCCN2CCC(OC3CCN(Cc4ccc(-c5cc6c(-c7cc(F)cc(NC(=O)c8ccc(C(C)(C)O)cc8F)c7C)ncnc6[nH]5)cc4)CC3)CC2)ccc1N1CCC(=O)NC1=O [Compound 30, N-(3-(6-(4-((4-((1-(2-(4-(2,4-dioxotetrahydropyrimidin-1(2H)-yl)-3-methylphenoxy)ethyl)piperidin-4-yl)oxy)piperidin-1-yl)methyl)phenyl)-7H-pyrrolo[2,3-d]pyrimidin-4-yl)-5-fluoro-2-methylphenyl)-2-fluoro-4-(2-hydroxypropan-2-yl)benzamide] | – | – | BTK degradation Amax (BTK): 12.2%; DC50 (BTK): 9.8 nM |
| O=C1CCN(c2cc(C(=O)N3CCC(OC4CCNCC4)CC3)ccc2Cl)C(=O)N1 [ILB-60, 1-(2-Chloro-5-(4-(piperidin-4-yloxy)piperidine-1-carbonyl)phenyl)dihydropyrimidine-2,4(1H,3H)-dione] | – | – | AC50 (CRBN [2]): 2.8 µM |
| Cc1ccc(C(=O)O)cc1N1CCC(=O)NC1=O [ILB-24, 3-(2,4-dioxotetrahydropyrimidin-1(2H)-yl)-4-methylbenzoic acid] | 0.68 | 2.85 | – |
| O=C1CCN(Cc2cccc(CCO)c2)C(=O)N1 [ILB-7, 1-(3-(2-Hydroxyethyl)benzyl)dihydropyrimidine-2,4(1H,3H)-dione] | – | – | AC50 (CRBN [1]): > 50 µM; CRBN Amax* (% at 50 μM) Format 2a (CRBN [1]; greatest effect as % displacement of the reference probe at the highest concentration tested (50 μM), given where AC50 >50 μM, 45 min): 40%; AC50 (CRBN [2]): 61.2 µM |
| C=CCOc1cccc(N2CCC(=O)NC2=O)c1 [ILB-34, 1-(3-(allyloxy)phenyl)dihydropyrimidine-2,4(1H,3H)-dione] | 1.91 | 3.65 | – |
| Cc1c(NC(=O)c2ccc(C(C)(C)O)cc2F)cc(F)cc1-c1ncnc2[nH]c(-c3ccc(CN4CCN(CCN5CCC(Oc6ccc(N7CCC(=O)NC7=O)cc6)CC5)CC4)cc3)cc12 [Compound 28, N-(3-(6-(4-((4-(2-(4-(4-(2,4-dioxotetrahydropyrimidin-1(2H)-yl)phenoxy)piperidin-1-yl)ethyl)piperazin-1-yl)methyl)phenyl)-7H-pyrrolo[2,3-d]pyrimidin-4-yl)-5-fluoro-2-methylphenyl)-2-fluoro-4-(2-hydroxypropan-2-yl)benzamide] | – | – | BTK degradation Amax (BTK): 40%; DC50 (BTK): 9.2 nM |
| O=C1CCN(c2c(F)cc(C#CCN3CCNCC3)cc2F)C(=O)N1 [ILB-45, 1-(2,6-difluoro-4-(3-(piperazin-1-yl)prop-1-yn-1-yl)phenyl)dihydropyrimidine-2,4(1H,3H)-dione] | – | – | AC50 (CRBN [2]): 13.5 µM |
| Cc1cc(F)c(C(=O)O)cc1N1CCC(=O)NC1=O [ILB-29, 5-(2,4-dioxotetrahydropyrimidin-1(2H)-yl)-2-fluoro-4-methylbenzoic acid] | – | 0.95 | – |
| Cc1c(NC(=O)N2C[C@H](CC(C)C)[C@@H](O)C2)cc(F)cc1-c1ncnc2[nH]c(-c3ccc(CN4CCN(CCOc5ccc(N6CCC(=O)NC6=O)cc5)CC4)cc3)cc12 [Compound 32, (3R,4S)—N-(3-(6-(4-((4-(2-(4-(2,4-Dioxotetrahydropyrimidin-1(2H)-yl)phenoxy)ethyl)piperazin-1-yl)methyl)phenyl)-7H-pyrrolo[2,3-d]pyrimidin-4-yl)-5-fluoro-2-methylphenyl)-3-hydroxy-4-isobutylpyrrolidine-1-carboxamide] | – | – | BTK degradation Amax (BTK): 16.7%; DC50 (BTK): 1.4 nM |

Continued, in another order:

| AC50 (CRBN [1]; [3]) [µM] | AC50 (CRBN [2]; [4]) [µM] | SMILES | also measured |
| --- | --- | --- | --- |
| 2.38 | 12.3 | COc1cc(C(=O)O)ccc1N1CCC(=O)NC1=O [ILB-81, 4-(2,4-dioxotetrahydropyrimidin-1(2H)-yl)-3-methoxybenzoic acid] | – |
| 2.16 | 14.9 | Cc1ccc(S(=O)(=O)NCCCCCN)cc1N1CCC(=O)NC1=O [ILB-53, N-(5-aminopentyl)-3-(2,4-dioxotetrahydropyrimidin-1(2H)-yl)-4-methylbenzenesulfonamide] | – |
